Assay results taken from patent US12686690B2, “Macrocyclic urea orexin receptor agonists” (Merck Sharp & Dohme LLC, priority 2020, dated 2026).

Target: T1, hOX2R (Homo sapiens, UniProt O43614)
T1 construct: expressed in transfected cells; host or cells: CHO cells (G418 selection)
T1 sequence (O43614 1-444): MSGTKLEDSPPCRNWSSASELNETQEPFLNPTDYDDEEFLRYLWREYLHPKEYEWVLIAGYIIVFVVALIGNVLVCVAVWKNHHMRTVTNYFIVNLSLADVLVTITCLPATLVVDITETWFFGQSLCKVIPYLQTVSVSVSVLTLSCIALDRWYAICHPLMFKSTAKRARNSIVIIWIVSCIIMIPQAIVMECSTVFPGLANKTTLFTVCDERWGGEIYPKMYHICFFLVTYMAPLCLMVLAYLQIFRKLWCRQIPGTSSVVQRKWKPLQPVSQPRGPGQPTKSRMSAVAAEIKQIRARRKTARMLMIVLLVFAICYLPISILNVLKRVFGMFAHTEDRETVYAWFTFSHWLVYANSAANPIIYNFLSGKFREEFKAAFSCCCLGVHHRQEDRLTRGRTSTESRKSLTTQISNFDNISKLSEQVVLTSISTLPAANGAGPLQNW
Assay: hOX2R IPone assay (orexin receptor agonism)
Assay type: cell-based
Details: IPone readout; for hOX2R_Ipone max %act: maximal activation; for EC50: orexin receptor agonist, read-out: hOX2R_IPone EC50

CCN1C(=O)NC(C)/C=C/CC(F)(F)COc2cn3ccnc3c(n2)-c2cc(ncc2OC)[C@H]1C (stereo partly drawn) [Example 220, (1^7E,3R,8E)-4-ethyl-11,11-difluoro-25-methoxy-3,7-dimethyl-13-oxa-4,6-diaza-1(6,8)-imidazo[1,2-a]pyrazina-2(4,2)-pyridinacyclotridecaphan-8-en-5-one]
hOX2R_Ipone max %act: 108.5%
EC50: 0.0121 µM

CCN1C(=O)N[C@@H](C)CCCC(F)(F)COc2nc(cn3ccnc23)-c2cc(ncc2OC)[C@H]1C [Example 221, (3R,7S,E)-4-ethyl-11,11-difluoro-25-methoxy-3,7-dimethyl-13-oxa-4,6-diaza-1(6,8)-imidazo[1,2-a]pyrazina-2(4,2)-pyridinacyclotridecaphan-5-one]
hOX2R_Ipone max %act: 90.75%
EC50: 0.408 µM

CCN1C(=O)N[C@@H](C)/C=C/CC2(CCOCC2)COc2nc(cn3ccnc23)-c2cc(ncc2OC)[C@H]1C [Example 222, (3′R,7'S,7′E,8′E)-4′-ethyl-5′-methoxy-3′,7′-dimethyl-2,3,5,6-tetrahydrospiro[pyran-4,11′-13-oxa-4,6-diaza-1(6,8)-imidazo[1,2-a]pyrazina-2(4,2)-pyridinacyclotridecaphanen]-8′-en-5′-one]
hOX2R_Ipone max %act: 61.55%
EC50: 0.76 µM

CCN1C(=O)NC(C(N)=O)CCCCCOc2nc(cn3ccnc23)-c2cc(ncc2F)[C@H]1C (stereo partly drawn) [Example 225, (3R,E)-4-ethyl-25-fluoro-3-methyl-5-oxo-13-oxa-4,6-diaza-1(6,8)-imidazo[1,2-a]pyrazina-2(4,2)-pyridinacyclotridecaphane-7-carboxamide]
hOX2R_Ipone max %act: 78.64%
EC50: 0.286 µM

(3R,7S,E)-4-ethyl-25-methoxy-3-methyl-7-(3,3,3-trifluoropropyl)-13-oxa-10-thia-4,6-diaza-1(6,8)-[1,2,4]triazolo[1,5-a]pyrazina-2(4,2)-pyridinacyclotridecaphan-5-one [Example 134]
hOX2R_Ipone max %act: 100.6%
EC50: 0.0064 µM

(3R,E)-4-ethyl-25-methoxy-3- methyl-7-(2,2,3,3- tetrafluoropropyl)-13-oxa-4,6- diaza-1(6,8)-imidazo[1,2-a] pyrazina-2(4,2)-pyridina- cyclotridecaphan-5-one [Example 187]
hOX2R_Ipone max %act: 104.1%
EC50: 0.00062 µM

(9R,13R,E)-14-Cyclopropyl-12-ethyl-13-methyl-9-(3,3,3-trifluoropropyl)-3-oxa-10,12-diaza-1(5,2)-thiazola-2(6,8)-imidazo[1,2-a]pyrazinacyclotridecaphan-11-one [Example 209]
hOX2R_Ipone max %act: 99.62%
EC50: 0.0011 µM
